Reference: patent US10034886B2, “GLP-1 receptor modulators” (Celgene International II SÀRL, priority 2014, dated 2018)

Each compound was assayed against T1, GLP-1R (Homo sapiens, UniProt P43220) (assay: EC20 GLP-1(9-36) PAM cAMP assay: dose response of compound in the presence of fixed concentration of GLP-1(9-36)). Settings: GLP-1R CRE-bla CHO-K1 cells, compound dose response with fixed concentration of GLP-1(9-36), read-out: EC20 GLP-1(9-36) PAM EC50.
T1 construct: host or cells: GLP-1R CRE-bla CHO-K1 cells
T1 sequence (P43220 24-463): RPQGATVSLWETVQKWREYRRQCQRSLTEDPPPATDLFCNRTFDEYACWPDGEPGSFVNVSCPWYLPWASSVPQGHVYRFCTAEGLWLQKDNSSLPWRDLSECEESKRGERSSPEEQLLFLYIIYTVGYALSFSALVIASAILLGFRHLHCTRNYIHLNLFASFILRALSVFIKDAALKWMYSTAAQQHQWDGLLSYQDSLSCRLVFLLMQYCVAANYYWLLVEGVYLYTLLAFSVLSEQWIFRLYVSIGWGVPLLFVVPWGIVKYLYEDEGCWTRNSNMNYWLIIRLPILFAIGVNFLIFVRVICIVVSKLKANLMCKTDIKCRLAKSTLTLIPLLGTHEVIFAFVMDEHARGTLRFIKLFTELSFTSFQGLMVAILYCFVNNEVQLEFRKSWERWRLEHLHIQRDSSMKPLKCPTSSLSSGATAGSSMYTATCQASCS
T1 sequence (P01275 100-127 partner limits assumed): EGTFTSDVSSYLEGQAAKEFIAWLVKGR
Format: cell-based
Summary of the method: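 GLP-1R CRE-bla CHO-K1 cells treated 30 min at 37 °C with 12-point compound dose response plus fixed EC20 GLP-1(9-36), with IBMX, in HBSS/HEPES/0.1% BSA pH 7.4. Total cAMP measured by luminescent detection against standard curve; EC50 and Emax from non-linear regression.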

| EC50 [nM] | Compound |
| --- | --- |
| 2500 to 5000 | Cc1ccc(S(=O)(=O)N2CC=C(c3cnc(-c4ccc(C[C@H](NC(=O)c5ccc(C(C)(C)C)s5)C(=O)N[C@H](C)C(=O)O)cc4)nc3)CC2)cc1 [Compound 1338] |
| 2500 to 5000 | COc1cccc(/C=C/c2cnc(-c3ccc(C[C@H](NC(=O)c4ccc(C(C)(C)C)s4)C(=O)N[C@H](C)C(=O)O)cc3)nc2)c1 [Compound 1263] |
| < 800 | CCCc1ccc(-c2ccc(-c3cnc(-c4ccc(C[C@H](NC(=O)c5ccc(C6CC6)cc5)C(=O)N5CC(C(=O)O)C5)cc4)nc3)c(F)c2)cc1 [Compound 1410] |
| 800 to 2500 | C[C@@H](NC(=O)[C@H](Cc1ccc(-c2ncc(/C=C/c3ccc(Cl)cc3)cn2)cc1)NC(=O)c1ccc(C(C)(C)C)s1)C(=O)O [Compound 1250] |
| < 800 | CCC[C@H]1CC[C@H](C2CCN(c3cnc(-c4ccc(C[C@H](NC(=O)c5ccc(C(C)(C)C)s5)C(=O)N[C@H](C)CC(=O)O)cc4)nc3)CC2)CC1 [Compound 1468] |
| 800 to 2500 | CC(C)(C)c1ccc(C(=O)N[C@@H](Cc2ccc(-c3ncc(N4CCC(c5ccccc5)CC4)cn3)cc2)C(=O)N2CC(C(=O)O)C2)s1 [Compound 1426] |
| < 800 | CCC[C@H]1CC[C@H](C2CCN(c3cnc(-c4ccc(C[C@H](NC(=O)c5ccc(C(C)(C)C)s5)C(=O)N[C@@H](CO)C(=O)O)cc4)nc3)CC2)CC1 [Compound 1467] |
| < 800 | CCC[C@H]1CC[C@H](C2CCN(c3cnc(-c4ccc(C[C@H](NC(=O)c5ccc(C(C)(C)C)s5)C(=O)N5CC(OC)(C(=O)O)C5)cc4)nc3)CC2)CC1 [Compound 1452] |
| < 800 | CCCc1ccc(-c2ccc(-c3cnc(-c4ccc(C[C@H](NC(=O)c5ccc(C(C)(C)C)s5)C(=O)N[C@H](C)C(=O)O)cc4)nc3)c(F)c2)cc1 [Compound 1320] |
| 2500 to 5000 | C[C@@H](NC(=O)[C@H](Cc1ccc(-c2ncc(-c3cnc(-c4ccccc4)nc3)cn2)cc1)NC(=O)c1ccc(C(C)(C)C)s1)C(=O)O [Compound 1311] |
| < 800 | Cc1cc(-c2ccc(-c3cnc(-c4ccc(C[C@H](NC(=O)c5ccc(C(C)(C)C)s5)C(=O)N5CC(C(=O)O)C5)cc4)nc3)c(F)c2)ccc1OC(F)(F)F [Compound 1219] |
| 800 to 2500 | CC(C)(C)c1ccc(C(=O)N[C@@H](Cc2ccc(-c3ncc(-c4ccc(C5CCCCC5)cc4)cn3)cc2)C(=O)O)s1 [Compound 1345] |
| 2500 to 5000 | Cc1ccc(-c2ccc(-c3ccc(-c4cnc(-c5ccc(C[C@H](NC(=O)c6ccc(C(C)(C)C)s6)C(=O)N6CC(C(=O)O)C6)cc5)nc4)c(F)c3)cc2)cc1 [Compound 1214] |
| < 800 | CCCc1ccc(-c2ccc(-c3cnc(-c4ccc(C[C@H](NC(=O)C5CCC(C(C)(C)C)CC5)C(=O)N5CC(C(=O)O)C5)cc4)nc3)c(F)c2)cc1 (stereo partly drawn) [Compound 1401] |
| < 800 | Cc1ccc(-c2ccc(-c3cnc(-c4ccc(C[C@H](NC(=O)c5ccc(C(C)(C)C)s5)C(=O)N[C@H](C)C(=O)O)cc4)nc3)cc2)cc1 [Compound 1283] |
| < 800 | CCCc1ccc(-c2ccc(-c3cnc(-c4ccc(C[C@H](NC(=O)c5ccc(CCC)s5)C(=O)N5CC(C(=O)O)C5)cc4)nc3)c(F)c2)cc1 [Compound 1409] |
| < 800 | CCC[C@H]1CC[C@H](C2CCN(c3cnc(-c4ccc(CC(NC(=O)c5ccc(C(C)(C)C)s5)C(=O)NS(=O)(=O)CC5CC5)cc4)nc3)CC2)CC1 (stereo partly drawn) [Compound 1542] |
| < 800 | C[C@@H](NC(=O)[C@H](Cc1ccc(-c2ncc(-c3ccc(-c4ccc(Cl)cc4)cc3)cn2)cc1)NC(=O)c1ccc(C(C)(C)C)s1)C(=O)O [Compound 1315] |
| < 800 | CC(C)(C)c1ccc(C(=O)NC(Cc2ccc(-c3ncc(N4CCC5CCCCC5C4)cn3)cc2)C(=O)N2CC(C(=O)O)C2)s1 (stereo not drawn) [Compound 1421] |

Same assay, conditions: dose response of compound in presence of fixed concentration of GLP-1(9-36), GLP-1R CRE-bla CHO-K1 cells, read-out: EC20 GLP-1(9-36) PAM EC50

| EC50 [nM] | Compound |
| --- | --- |
| < 800 | CC(C)(C)COc1ccc(-c2cnc(-c3ccc(C[C@H](NC(=O)c4ccc(C(C)(C)C)s4)C(=O)N4CC(C(=O)O)C4)cc3)nc2)cc1 [Compound 775] |
| 800 to 2500 | CC(C)CCOc1ccc(-c2cnc(-c3ccc(C[C@H](NC(=O)c4ccc(C(C)(C)C)cc4)C(=O)NCCC(=O)O)cc3)nc2)cc1 [Compound 456] |
| 800 to 2500 | CCCCCCCOc1ccc(-c2cnc(-c3ccc(C[C@H](NC(=O)c4ccc(C(C)(C)C)s4)C(=O)NC(C(=O)O)C(O)c4cnccn4)cc3)nc2)cc1 (stereo partly drawn) [Compound 917] |
| 5000 to 10000 | CC(C)(C)c1ccc(C(=O)N[C@@H](Cc2ccc(-c3ncc(-c4nc(-c5ccc(Cl)c(Cl)c5)no4)cn3)cc2)C(=O)NCCC(=O)O)cc1 [Compound 752] |
| 5000 to 10000 | C[C@@H](NC(=O)[C@H](Cc1ccc(-c2ncc(-c3ccc(C(C)(C)C#N)cc3F)cn2)cc1)NC(=O)c1ccc(C(C)(C)C)s1)C(=O)O [Compound 1018] |
| < 800 | CC(C)(C)c1ccc(C(=O)N[C@@H](Cc2ccc(-c3ncc(-c4ccc([C@H]5CC[C@@H](C)CC5)cc4)cn3)cc2)C(=O)N2CC(C(=O)O)C2)s1 [Compound 1177] |
| 800 to 2500 | CCCCCCCOc1cc(C)c(-c2cnc(-c3ccc(C[C@H](NC(=O)c4ccc(C(C)(C)C)s4)C(=O)N[C@H](C)C(=O)O)cc3)nc2)c(C)c1 [Compound 791] |
| < 800 | CCCCCCCOc1ccc(-c2cnc(-c3ccc(C[C@H](NC(=O)c4ccc(C(C)(C)C)cc4)C(=O)N4C[C@H](O)C[C@H]4C(=O)O)cc3)nc2)cc1 [Compound 567] |
| 800 to 2500 | CCCCCCCOc1ccc(-c2cnc(-c3ccc(C[C@H](NC(=O)Cc4ccc(OCCCC)cc4)C(=O)N4CC(C(=O)O)C4)cc3)nc2)cc1 [Compound 1102] |
| < 800 | CC(C)(C)c1ccc(C(=O)N[C@@H](Cc2ccc(-c3ncc(-c4ccc([C@H]5CC[C@@H](C(C)(C)C)CC5)cc4)cn3)cc2)C(=O)N2CC(C(=O)O)C2)s1 [Compound 1182] |
| 800 to 2500 | CCCCCCCOc1ccc(-c2cnc(-c3ccc(C[C@H](NC(=O)c4ccc(O)c(F)c4)C(=O)N4CC(C(=O)O)C4)cc3)nc2)cc1 [Compound 1104] |
| 800 to 2500 | CCCCCCCOc1ccc(-c2cnc(-c3ccc(C[C@H](NC(=O)c4ccc(C(C)(C)C)cc4)C(=O)N4CC[C@@H](C(=O)O)C4)cc3)nc2)cc1 [Compound 588] |
| 800 to 2500 | CCCCCCCCOc1ccc(-c2cnc(-c3ccc(C[C@H](NC(=O)c4ccc(C(C)(C)C)cc4)C(=O)NCCC(=O)O)cc3)nc2)cc1 [Compound 712] |
| 2500 to 5000 | CCSc1ccc(-c2cnc(-c3ccc(C[C@H](NC(=O)c4ccc(C(C)(C)C)s4)C(=O)N[C@H](C)C(=O)O)cc3)nc2)cc1 [Compound 998] |
| 800 to 2500 | CCCCCCCOc1ccc(-c2cnc(-c3ccc(C[C@H](NC(=O)c4ccc(C(C)(C)C)cc4)C(=O)NCCC(=O)O)cc3)nc2)cc1Cl [Compound 702] |
| 800 to 2500 | CC(C)(C)c1ccc(C(=O)N[C@@H](Cc2ccc(-c3ncc(-c4nc(-c5cccc(Oc6ccccc6)c5)no4)cn3)cc2)C(=O)NCCC(=O)O)cc1 [Compound 757] |

| EC50 [nM] | Compound |
| --- | --- |
| 800 to 2500 | CCCCCCCOc1ccc(-c2cnc(-c3ccc(C[C@H](NC(=O)c4ccc(CCC)s4)C(=O)N[C@H](C)C(=O)O)cc3)nc2)cc1 [Compound 840] |
| 800 to 2500 | CCCCCCCOc1ccc(-c2cnc(-c3ccc(C[C@H](NC(=O)c4ccc(C(C)(C)C)s4)C(=O)N[C@@H](C(=O)O)[C@@H](C)CC)cc3)nc2)cc1 [Compound 656] |
| 5000 to 10000 | CCCCCCCOc1ccc(-c2cnc(-c3ccc(C[C@H](NC(=O)c4ccc(C(C)(C)C)cc4)C(=O)NCC(CC4CCOCC4)C(=O)O)cc3)nc2)cc1 (stereo partly drawn) [Compound 559] |
| 800 to 2500 | CC(C)(C)c1ccc(C(=O)N[C@@H](Cc2ccc(-c3ncc(-c4ccc(OCC5CCC(C(C)(C)C)CC5)cc4)cn3)cc2)C(=O)NCCC(=O)O)cc1 (stereo partly drawn) [Compound 803] |
| < 800 | CCCCCCCOc1ccc(-c2cnc(-c3ccc(C[C@H](NC(=O)c4ccc(C(C)(C)C)s4)C(=O)NC(C(=O)O)C(O)c4cc(C)no4)cc3)nc2)cc1 (stereo partly drawn) [Compound 912] |
| < 800 | CCCCCCCOc1ccc(-c2cnc(-c3ccc(C[C@H](NC(=O)c4ccc(C(C)(C)C)cc4)C(=O)N[C@@H](C)C(=O)O)cc3)nc2)cc1 [Compound 400] |
| 800 to 2500 | CCCCCCCOc1ccc(-c2cnc(-c3ccc(C[C@H](NC(=O)c4ccc(C(C)(C)C)cc4)C(=O)N[C@H](CC(=O)O)C(=O)NC)cc3)nc2)cc1 [Compound 589] |
| 800 to 2500 | CCCCCCCOc1ccc(-c2cnc(-c3ccc(C[C@H](NC(=O)c4ccc(C(C)(C)C)s4)C(=O)NC(CCCC(=O)O)C(=O)O)cc3)nc2)cc1 (stereo partly drawn) [Compound 633] |
| 800 to 2500 | CCCCCCCOc1ccc(-c2cnc(-c3ccc(C[C@H](NC(=O)c4ccc(C(C)(C)C)s4)C(=O)N4CC(C)(C(=O)O)C4)cc3)nc2)cc1 [Compound 874] |
| 2500 to 5000 | CC(C)(C)c1ccc(C(=O)N[C@@H](Cc2ccc(-c3ncc(-c4ccc(OC5CC5)cc4)cn3)cc2)C(=O)N2CC(C(=O)O)C2)s1 [Compound 780] |
| < 800 | CC(C)CCCCOc1ccc(-c2cnc(-c3ccc(C[C@H](NC(=O)c4ccc(C(C)(C)C)s4)C(=O)N4CC[C@H](C(=O)O)C4)cc3)nc2)cc1 [Compound 772] |
| 5000 to 10000 | CCCCCCCOc1ccc(-c2cnc(-c3ccc(CC(NC(=O)c4ccc(C(C)(C)C)s4)C(=O)NCC4CCN(C)CC4)cc3)nc2)cc1 (stereo not drawn) [Compound 430] |
| 2500 to 5000 | CC(C)(C)c1ccc(C(=O)N[C@@H](Cc2ccc(-c3ncc(-c4ccc(C#Cc5ccccc5)cc4)cn3)cc2)C(=O)NCCC(=O)O)cc1 [Compound 689] |
| 5000 to 10000 | CCC(C)COc1ccc(-c2cnc(-c3ccc(C[C@H](NC(=O)c4ccc(C(C)(C)C)cc4)C(=O)NCCC(=O)O)cc3)nc2)cc1 (stereo partly drawn) [Compound 473] |
| 800 to 2500 | CCCCCCOc1ccc(-c2cnc(-c3ccc(C[C@H](NC(=O)c4ccc(C(C)(C)C)s4)C(=O)N[C@H](C)C(=O)O)cc3)nc2)cc1 [Compound 735] |
| 2500 to 5000 | CC(C)CCCOc1ccc(-c2cnc(-c3ccc(C[C@H](NC(=O)c4ccc(C(C)(C)C)s4)C(=O)NC(C(=O)O)C(O)c4ccccc4)cc3)nc2)cc1 (stereo partly drawn) [Compound 924] |
